Assay results taken from patent US20140099354A1, “BIOPASSIVATING MEMBRANE STABILIZATION BY MEANS OF NITROCARBOXYLIC ACID-CONTAINING PHOSPHOLIPIDS IN PREPARATIONS AND COATINGS” (priority 2011, published 2014).
Each block holds one compound with its values, some of them ahead of it.

What was measured:
[1] = Tissue response to coated silicone implants in vivo after bleomycin; parameters: species or system Wistar rats; conditions: silicone cushions, subcutaneous, 7 to 90 days
Method: Induction of fibrotic tissue production by connective tissue activation as a consequence of implantation of foreign material was examined in an in-vivo animal model. As implant materials, sterile silicone cushions having a diameter of 1 cm were used.
In male Wistar rats (190-240 g) that were fed and housed under identical conditions for one week, general anaesthesia was performed by intramuscular injection of 0.008 mL/100 g ketamine and 0.004 mL/100 g xylocaln chloride 2%. Then the back of the animals was shaved, sterilized and infiltrated with xylocalne chloride. A paravertebral incision was made on both sides with a length of 1.5 cm followed by preparation of the subcutaneous tissue, so that on both sides approx. 2×2 cm cavities were preformed. Hemostasis was achieved by cauterization, if necessary. Then balls of cotton saturated with Bleomycin (cell-pharm GmbH, Hannover, Germany: 1% in 0.9% NaCl solution) were inserted into the cavities for 3 minutes and then removed. Without rinsing the cavities, the implants coated with a nitrated phospholipid were inserted into the cavity on the left side and the implants coated with natural phospholipid into the cavity on the right side. Thereafter, a layer by layer wound closure was performed and a sterile adhesive bandage was applied.
The animals were kept according to standard conditions for 7, 14, 30, 60 and 90 days. At any study time endpoint, two animals were euthanized. After death the well visible and palpable implants were removed using en-block resection technique. The resected specimens were fixed and embedded in paraffin. Then they were cut in half and the liquid silicone was removed. The specimens were embedded again and cut into thin slices which were stained with H & E and Sirius red, and evaluated by light microscopy. Evaluation was done according to the following criteria:
A1: none; A2: occasional monocytic cells or lymphocytes; A3: moderate numbers or groups of monocytic cells or lymphocytes; A4: dense infiltration of monocytes, eosinophils, or giant cells.
B1: none; B2: collagen-rich layer around the implant; B3: thick (>1 mm) and dense collagen-rich tissue formation around the implant.
In every 10th serial section 10 fields of view uniformly distributed over the circumference of the implant were evaluated and the herein predominant expression was assigned to an event table. In total, 200 fields of view were analyzed per implant

sciatic nerve = assay: Viability of cryopreserved nerve grafts (Annexin-V staining, FACS); assay type: cell-based, rats; conditions: 100 mmolar solution 1 hour, −30° C. 72 hours
Method: The sciatic nerve was prepared and sectured in anesthetized rats. The nerve pieces were freed from connective tissue and divided into 3 parts. Specimens were placed in culture DMEM medium containing low a concentration of glucose (1 g/L) with L-glutamine (PAA, Pasching Austria) for 24 hours. […] Nerve specimens from the same animals that received no pretreatment served as controls. After incubation, the specimens were cultured for 24 hours. In a further control group, specimens were cryopreserved without any pretreatment. The specimens were covered with a sterile gauze pad moistened with culture medium. Thereafter the temperature was gradually cooled to −30° C. After 72 hours, the nerve pieces were gradually rewarmed to 37° C. After this, renewed culturing was done for 48 hours. The nerve pieces were dissected enzymatically then (collagenase A and D, Roche, Mannheim, Germany) followed by a mechanical separation through multiple uptake and release in a glass pipette. The isolated cells were washed and marked with a living/death staining (Annexin-V-Fluos staining Kit, Roche Diagnostics, Mannheim, Germany) and quantified using FACS analysis. The number of living cells identified was set in relation to the total cells count.

[2] = Transisomerization of unsaturated fatty acids in coatings on balloon catheters (FTIR); assay type: physicochemical; conditions: for proportion of trans-fatty acids: after heat treatment (60° C., three hours)
From the text: The natural phospholipids POPC and SLPE, as well as the analogous nitrated phospholipids as shown in example C(PNOPC) and […]), as well as the phospholipids according to examples […], and S as a mono substance and as a combination of the native phospholipids and the corresponding nitro-carboxylic acid (s)-containing phospholipids mixed in a ratio of 1:1 were used for this investigation. Balloon catheters were coated by means of the Langmuir-Schaefer procedure where the balloon segment was aligned longitudinally and coaxial to the solution surface, dipping into the liquid for approx. 1 mm over the entire length. Then the catheter was slowly rotated around its axis 5 times. […] The solution was cooled and given to the coating solution then. In case of incomplete dissolution of the phospholipids or if they separated when cooled, DMSO was added at a concentration of up to 20 vol.-%, preferably up to 10 vol.-%. After coating, the catheters were vacuum dried for 8 hours in order to remove residual solvent. The abrasion or loss of coating layers was determined by weighing the catheter before and after coating as well as after the mechanical stability test in the tubing system as described above using a high precision balance. In order to examine the long-term stability of the coating, catheters coated with phospholipids were sealed with polyethylene glycol 1000 (Roth, Germany). For that purpose PEG 1000 was melted and mixed with a 10% ethanol solution at 50° C. A portion of the phospholipid-coated balloon catheter was coated by means of dip-coating in this PEG solution at 50° C., and dried thereafter for 8 hours. Stability of cis-conformity of unsaturated fatty acids of the phospholipids investigated was determined after heat treatment at 60° C. for three hours in a heating cabinet. After 24 hours and after 2 months the phospholipids coated on the balloon surface were detached and analyzed. Detachment was carried out in 50 ml of a chloroform:methanol mixture (3:1, v: v). A 10 μl aliquot was used for a FTIR spectroscopy. For this purpose the samples were dropped on a ZnSe ATR crystal and then the solvent was evaporated. Degree of transisomerization was determined using the integral of intensity of proton resonance in comparison to that measured from a cis configuration of the reference substances. Measurements were performed 24 hours after coating, heat treatment and after 2 months of storage at 25° C. under sterile room air conditions.

cortical neurons = assay: Hypoxia and reperfusion of cortical neurons (viability, LDH); conditions: neurons and cardiac myocytes; 10 to 50 μmol/l
Method: To determine whether the membrane-stabilizing properties of nitrated phospholipids can lead to attenuation of effects due to an ischemic event or the re-perfusion damage, cortical neurons and cardiac myocytes were investigated.
Freshly prepared cortex tissue was separated with Papain and tissue suspensions were cultured in culture vessels (Prim ARA; BD Biosciences, USA) with Neurobasal A/B27 medium (Invitrogen) for 10-12 days. Cell suspensions were divided, and replenished with suspensions of the natural phospholipids SOPC and PLPC, as well as the analogue phospholipids with nitration of unsaturated fatty acids (1-stearoyl-2-(9-nitrooleoyl)-sn-PC and 1-palmitoyl-2-(9-nitrolinoleoyl)-sn-PC) at concentrations of 10 to 50 μmol/l in NaCl (0.9%) were added. […] After 4 hours, the cells were washed three times with buffered saline and buffered NaCl solution with the addition of MgCl2 and CaCl2 in an anaerobic atmosphere (85% N2, 5% O2, 10% CO2; at 35° C.) for 10 and 30 minutes. Then, the cells were washed once and grown in culture medium under aerobic conditions for 24 hours. […] Cells were stained with annexin V-FITC and propidium iodide (Molecular probes, USA). The vital and necrotic cells were measured by flow cytometry (FACSCalibur, Becton & Dickinson). The volume of culture medium was determined and an aliquot was taken for determination of the LDH (lactate dehydrogenase) concentration.

[3] = Abrasion stability and traction work load of coated balloon catheters; assay type: physicochemical
Method: Balloon catheters were coated by means of the Langmuir-Schaefer procedure where the balloon segment was aligned longitudinally and coaxial to the solution surface, dipping into the liquid for approx. 1 mm over the entire length. Then the catheter was slowly rotated around its axis 5 times. Phospholipids were dissolved at a concentration of 3 mmol in an ion-free aqueous solution at 50° C. The solution was cooled and given to the coating solution then. In case of incomplete dissolution of the phospholipids or if they separated when cooled, DMSO was added at a concentration of up to 20 vol.-%, preferably up to 10 vol.-%. After coating, the catheters were vacuum dried for 8 hours in order to remove residual solvent.
The tubing was filled with a 10% human albumin solution at a temperature of 35° C. The cable system, which had previously been brought through the tubing was connected to the catheter tip and tracked outside the tubing by reversing pulleys, which allowed exactly vertically traction of the cable that was connected to a motorized winch. The winch was mounted on a digital precision balance. The catheters mounted in this manner were pulled through the tubing system and the weight changes measured by the balance, which represented the traction work load achieved for the passage of the catheter, was recorded continuously. These readings were integrated over time. The resultant values allow estimation of the total shear force that occurred during the passage of the catheter through the tubing system.

ovarian tissue strips = assay: Cryopreservation of ovarian tissue strips: intact follicles; conditions: liquid nitrogen 14 days, cultured 14 days
Method: Ovar ectomy was performed in female sheep; resected tissues were cut into 60 ovarian tissue strips. The ovarian strips were either cultured directly (n=4) or prepared with a usual solution for vitrification (VS group; Vitrification Kit, Sage, USA) or incubated with nitrated PLs (NPL group). For this purpose, the tissue strips were bathed in an equibrilation solution (ART-8025-A) which consisted of MOPS-buffered amino acids and gentamicin sulfate (10 mg/l), and 7.5% (v/v) of each DMSO and ethylene glycol and 12 mg/ml human serum albumin for 30 minutes. Thereafter the strips of the VS group were placed in the vitrification solution (ART-8025-B), which is a MOPS-buffered solution containing amino acids and gentamicin sulfate, that contain 15% (v/v) each DMSO and ethylenglycol, 12 mg/ml human albumin and 0.6 M sucrose. The strips of the NPL group were placed in a solution containing 25% (v/v) nitrated PL SNOPC or PNLPC in a PBS-buffered 1% DMSO solution containing 5% human albumin for 60 minutes. The treated tissue strips were then immersed into liquid nitrogen and kept here for 14 days. Then removal and warming of the tissue pieces was performed in AIM-V medium (Gibco, Invitrogen) in a sterile culture dish, first up to 5° C. within 20 minutes, then heated further in a water bath up to 37° C., within the following 60 minutes. The culture medium was replaced and specimens cultured for 14 days. After this, the tissue pieces were fixed, embedded in paraffin and cut, followed by histological examination. […] The total number of intact follicles in the control group was taken as a reference to the number of follicles in the cryopreserved groups.
The culture medium has been exchanged by every 2nd day; samples for hormone analysis were taken and frozen at that time. Determination of 17 β-estradiol and progesterone were performed with a radio-immuno assay (diagnostic systems laboratories, USA).

TRPV1, 2 and 4, TRPA1 = assay: Inducible ion current of TRP receptors in Xenopus oocytes (voltage clamp); assay type: cell-based, rat; conditions: 50 mmol/l, 10 and 60 minutes
Method: An established in-vitro model of Xenopus oocytes (Dascal N, 1987 The use of Xenopus oocytes. CRC critical reviews in biochemistry 22, 317-387) was used to study the influence of incubation with PL on ion channels regulated by membrane receptors. Defolliculized oocytes were transfected with cRNA (rat) of TRPV1, 2 and 4, as well as of TRPA1, stored in tissue culture plates and incubated in culture medium (ND 96) at 15° C. under constant motion in the incubator for 7 to 10 days.
Induced leakage currents through activation of the TRP receptors was determined by means of double electrode voltage-clamp technique (Ahern G P, Brooks I M, Miyares R L &Wang X B, 2005, Extracellular cations sensitize and gate capsaicin receptor TRPV1 modulating pain signalling. J Neurosci 25, 5109-5116). Ooocytes were probed with borosilicate glass capillaries (Clark) and connected to a feedback amplifier (Gene clamp Amplifier, Axon instruments). The membrane potential of oocytes was clamped to −60 or −90 mV. The presence of a directive […] current was compared to non-transfected controls. The investigations were performed in a miniature organ bath in calcium-free buffered (Hepes, pH 7.3) NaCl solution. The TRPV1 receptor excitation was initiated by rapidly changing of the bath solution against a capsaicin solution (10 μmol). Results of non-pretreated oocytes were used for normative comparison of subsequent measurements of incubatesd cells. Investigations with incubated cells were carried out in the same way for oocytes transfected with the TRPV2, and TRPV4 and TRPA1 receptors, wherein the receptor agonists cannabidiol (10 μmol) and 4α-PDD (4α-phorbol 12,13-didecanoate, 50 μmol) and innamaldehyde (50 μmol) were used instead of capsaicin.

[4] = test system: HeLa, HUVEC and L929 fibroblast; assay: cells; assay type: cell-based
Method: Physiologically occurring phospholipids can be taken up by virtually all cell lines in large quantities. It is known that phospholipids that contain non-physiologically occurring fatty acid residues can cause cell lyses or death. Three cell lines (HeLa, HUVEC and L929 fibroblast) were cultured in a suitable culture medium of 5% FCS at 37° C. and 5% CO2 concentrations to a subconfluent concentration of 1.5×10^5 cells.
SOPC, DOPC, POPC, ONOPC, PNLPC, and the free fatty acids of OA, LA, NOOA, and NOLA were dissolved in 0.5% DMSO. […] Cell cultures were incubated for 24 h and 48 h. Thereafter, the culture medium was removed and the cells washed twice. Following this, cells suspensions were given in four vials to perform the following analysis:
For the determination of viability, phenol red was added to the suspended cells. After 4 h, the medium was renewed and 10 μl of the MTT solution was added. The cells were cultured for 4 hours, and then a 10% SDS solution was pipetted. After 24 h, absorption of formazan crystals was measured at 500 nm using a power wave X (bio-tek instruments, Inc., USA). For the quantitative comparison of toxicity, the EC50 was determined.

[5] = top coating with PEG, after 2 month

mechanical removal of coating substance and workload to pull the catheter through PTFE tubing [3]: Very similar results
Compound: 1-(5,8,11-eicosatrienoyl)-2-(9-nitro-α-linolenoyl)-sn-3-glycerophosphocholine and 1-(5,8,11-eicosatrienoyl)-2-(10-nitro-α-linolenoyl)-sn-3-glycerophosphocholine [Example P5]
rate of intact follicles relative to the control group (ovarian tissue strips): 90%

mechanical removal of coating substance and workload to pull the catheter through PTFE tubing [3]: Very similar results
Compound: CCCCCCCCC(O)C(CCCCCCCC(=O)OC[C@H](COP(=O)([O-])OCC[N+](C)(C)C)OC(=O)CCCCCCCC(C(O)CCCCCCCC)[N+](=O)[O-])[N+](=O)[O-] (some centres unmarked) [Example O1, 1,2-di-(9-nitro-10-hydroxy-stearoyl)-sn-3-glycerophosphocholine]
results of the hypoxia experiments compared with reference nitrated phospholipids (cortical neurons): slightly worse results

mechanical removal of coating substance and workload to pull the catheter through PTFE tubing [3]: Very similar results
Compound: 1-stearoyl-2-(10-nitrolinoleoyl)-sn-3-glycerophosphocholine and 1-stearoyl-2-(9-nitrolinoleoyl)-sn-3-glycerophosphocholine [Example P2]
biocompatibility of coated implants compared to natural PLs [1]: improved biocompatibility of implants several-fold
proportion of living cells relative to non-frozen control (sciatic nerve): 82%
rate of intact follicles relative to the control group (ovarian tissue strips): 85%

Further lines, the compound ahead of its results:

Compound: CCCCC/C=C\C/C=C(\CCCCCCCC(=O)O[C@H](COC(=O)CCCCCCCCCCCCCCCCC)COP(=O)(O)OCCN)[N+](=O)[O-] [Example R, 1-Stearoyl-2-(E-9-nitrolinoleoyl)-sn-3-glycerophosphatidylethanolamine]
biocompatibility of coated implants compared to natural PLs [1]: improved biocompatibility of implants several-fold
proportion of living cells relative to non-frozen control (sciatic nerve): 75%
proportion of living cells relative to non-frozen control (sciatic nerve; listed as SNLPE): 80%
proportion of trans-fatty acids [2]: 28%
degree of transisomerization ([2]; coatings after 2 months): 32%
degree of transisomerization [2, 5]: 33%

Compound: CCCCCCCC/C=C(\CCCCCCCC(=O)O[C@H](COC(=O)CCCCCCCCCCCCCCC)COP(=O)([O-])OCC[N+](C)(C)C)[N+](=O)[O-] [Example C, (E)-1-Palmitoyl-2-(9-nitrooleoyl)-sn-3-glycerophosphocholine]
results of the hypoxia experiments compared with reference nitrated phospholipids (cortical neurons): did not show relevant differences
proportion of trans-fatty acids [2]: 25%
degree of transisomerization ([2]; coatings after 2 months): 30%
degree of transisomerization [2, 5]: 32%

Compound: 1,2-di-(9-nitrolinoleoyl)-sn-3-glycerophosphocholine, 1,2-di-(10-nitrolinoleoyl)-sn-3-glycerophosphocholine, 1-(9-nitrolinoleoyl)-2-(10-nitrolinoleoyl)-sn-3-glycerophosphocholine and 1-(10-nitrolinoleoyl)-2-(9-nitrolinoleoyl)-sn-3-glycerophosphocholine [Example N8]
biocompatibility of coated implants compared to natural PLs [1]: improved biocompatibility of implants several-fold

Compound: CC/C=C(\C/C=C\C/C=C\CCCCCCCC(=O)O[C@H](COC(=O)CCCCCCC/C=C\C/C=C\CCCCC)COP(=O)([O-])OCC[N+](C)(C)C)[N+](=O)[O-] [Example P12, 1-linoleoyl-2-(E-15-nitro-α-linolenoyl)-sn-3-glycerophosphocholine]
biocompatibility of coated implants compared to natural PLs [1]: improved biocompatibility of implants several-fold
rate of intact follicles relative to the control group (ovarian tissue strips): 91%

Compound: CCCCCCCCC=C(CCCCCCCC(=O)OC[C@H](COP(=O)(O)OC[C@H](N)C(=O)O)OC(=O)CCCCCCCC(=CCCCCCCCC)[N+](=O)[O-])[N+](=O)[O-] [Example E, 1,2-di-(9-nitrooleoyl)-sn-3-glycerophosphatidylserine]
inducible membrane channel activity of TRP channels (TRPV1, 2 and 4, TRPA1): significant decrease of inducible membrane channel activity
mechanical removal of coating substance and workload to pull the catheter through PTFE tubing [3]: Very similar results

Compound: CCCCCCCC/C=C\CCCCCCCC(=O)OC[C@H](COP(=O)([O-])OCC[N+](C)(C)C)OC(=O)CCCCCCC/C(=C\CCCCCCCC)[N+](=O)[O-] [Example P15, 1-oleoyl-2-(E-9-nitrooleoyl)-sn-3-glycerophosphocholine]
total viability (MTT assay) [4]: 83%
EC50 ([4]; after 48 hours, range over cell lines, read-out: EC50 (MTT assay)): 800 to 5000 µM

Compound: CCCCC/C=C\C/C=C\CCCCCCCC(=O)O[C@H](COC(=O)CCCCCCCCCCCCCCCCC)COP(=O)(O)OCCN [SLPE, 1-Stearoyl-2-linoleoyl-sn-3-glycero-phosphatidylethanolamine, reference compound]
proportion of living cells relative to non-frozen control (sciatic nerve): 15%
proportion of trans-fatty acids [2]: 86%
degree of transisomerization ([2]; coatings after 2 months): 98%
degree of transisomerization [2, 5]: 92%

Compound: 1,2-di-(9-nitrolinoleoyl)-sn-3-glycerophosphocholine, 1,2-di-(10-nitrolinoleoyl)-sn-3-glycerophosphocholine, 1-(9-nitrolinoleoyl)-2-(10-nitrolinoleoyl)-sn-3-glycerophosphocholine and 1-(10-nitrolinoleoyl)-2-(9-nitrolinoleoyl)-sn-3-glycerophosphocholine [Example N1]
mechanical removal of coating substance and workload to pull the catheter through PTFE tubing [3]: Very similar results
rate of intact follicles relative to the control group (ovarian tissue strips): 93%

Compound: CCCCCCCC/C=C(\CCCCCCCC(=O)OC[C@H](COP(=O)(O)O)OC(=O)CCCCCCC/C(=C\CCCCCCCC)[N+](=O)[O-])[N+](=O)[O-] [Example G, 1,2-di-(9-nitrooleoyl)-sn-3-glycerophosphate]
biocompatibility of coated implants compared to natural PLs [1]: improved biocompatibility of implants several-fold
mechanical removal of coating substance and workload to pull the catheter through PTFE tubing [3]: Very similar results

Compound: CCCCCCCC/C=C(\CCCCCCCC(=O)O[C@H](COC(=O)CCCCCCCCCCCCCCC)COP(=O)([O-])OCC[N+](C)(C)C)[N+](=O)[O-] [Example P8, 1-palmitoyl-2-(E-9-nitrooleoyl)-sn-3-glycerophosphocholine]
inducible membrane channel activity of TRP channels (TRPV1, 2 and 4, TRPA1): significant decrease of inducible membrane channel activity
rate of intact follicles relative to the control group (ovarian tissue strips): 96%
